Results published in ChEMBL document CHEMBL3991601, “The target landscape of clinical kinase drugs” (Science, 2017).
Activity calls are given as the source filed them. For most assays here, no stated cut-off is given here; in the data, actives have a measured Kd and inactives only a lower limit.

Assays:
[1] = molecular target: Ribosomal protein S6 kinase alpha-6 (Homo sapiens, UniProt Q9UK32)
[2] = molecular target: Non-receptor tyrosine-protein kinase TYK2 (Homo sapiens, UniProt P29597)
[3] = molecular target: T1, Delta(24)-sterol reductase (Homo sapiens, UniProt Q15392)
T1 sequence (Q15392 whole entry): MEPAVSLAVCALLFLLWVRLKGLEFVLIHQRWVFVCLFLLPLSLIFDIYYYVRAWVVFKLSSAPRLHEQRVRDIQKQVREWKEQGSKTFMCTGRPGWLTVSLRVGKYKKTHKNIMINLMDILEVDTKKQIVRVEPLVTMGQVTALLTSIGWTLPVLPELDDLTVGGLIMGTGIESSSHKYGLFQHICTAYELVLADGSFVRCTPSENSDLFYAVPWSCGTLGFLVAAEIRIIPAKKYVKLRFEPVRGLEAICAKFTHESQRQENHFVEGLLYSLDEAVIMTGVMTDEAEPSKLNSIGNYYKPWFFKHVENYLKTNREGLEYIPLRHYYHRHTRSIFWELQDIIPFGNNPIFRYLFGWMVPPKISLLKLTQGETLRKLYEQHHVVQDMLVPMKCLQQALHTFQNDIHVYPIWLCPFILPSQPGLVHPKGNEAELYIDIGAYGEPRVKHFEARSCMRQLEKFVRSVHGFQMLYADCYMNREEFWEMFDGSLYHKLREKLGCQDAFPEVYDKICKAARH

[4] = molecular target: T2, Electron transfer flavoprotein subunit beta (Homo sapiens, UniProt P38117)
T2 sequence (P38117 whole entry): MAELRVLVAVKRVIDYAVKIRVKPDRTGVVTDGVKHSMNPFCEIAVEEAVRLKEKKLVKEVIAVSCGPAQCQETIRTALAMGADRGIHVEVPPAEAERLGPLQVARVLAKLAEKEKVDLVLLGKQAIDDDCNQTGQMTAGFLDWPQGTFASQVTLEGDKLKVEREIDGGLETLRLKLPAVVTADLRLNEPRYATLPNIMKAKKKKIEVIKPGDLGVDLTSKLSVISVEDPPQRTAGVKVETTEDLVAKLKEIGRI

[5] = molecular target: T3, Ephrin type-B receptor 6 (Homo sapiens, UniProt O15197)
T3 sequence (O15197 whole entry): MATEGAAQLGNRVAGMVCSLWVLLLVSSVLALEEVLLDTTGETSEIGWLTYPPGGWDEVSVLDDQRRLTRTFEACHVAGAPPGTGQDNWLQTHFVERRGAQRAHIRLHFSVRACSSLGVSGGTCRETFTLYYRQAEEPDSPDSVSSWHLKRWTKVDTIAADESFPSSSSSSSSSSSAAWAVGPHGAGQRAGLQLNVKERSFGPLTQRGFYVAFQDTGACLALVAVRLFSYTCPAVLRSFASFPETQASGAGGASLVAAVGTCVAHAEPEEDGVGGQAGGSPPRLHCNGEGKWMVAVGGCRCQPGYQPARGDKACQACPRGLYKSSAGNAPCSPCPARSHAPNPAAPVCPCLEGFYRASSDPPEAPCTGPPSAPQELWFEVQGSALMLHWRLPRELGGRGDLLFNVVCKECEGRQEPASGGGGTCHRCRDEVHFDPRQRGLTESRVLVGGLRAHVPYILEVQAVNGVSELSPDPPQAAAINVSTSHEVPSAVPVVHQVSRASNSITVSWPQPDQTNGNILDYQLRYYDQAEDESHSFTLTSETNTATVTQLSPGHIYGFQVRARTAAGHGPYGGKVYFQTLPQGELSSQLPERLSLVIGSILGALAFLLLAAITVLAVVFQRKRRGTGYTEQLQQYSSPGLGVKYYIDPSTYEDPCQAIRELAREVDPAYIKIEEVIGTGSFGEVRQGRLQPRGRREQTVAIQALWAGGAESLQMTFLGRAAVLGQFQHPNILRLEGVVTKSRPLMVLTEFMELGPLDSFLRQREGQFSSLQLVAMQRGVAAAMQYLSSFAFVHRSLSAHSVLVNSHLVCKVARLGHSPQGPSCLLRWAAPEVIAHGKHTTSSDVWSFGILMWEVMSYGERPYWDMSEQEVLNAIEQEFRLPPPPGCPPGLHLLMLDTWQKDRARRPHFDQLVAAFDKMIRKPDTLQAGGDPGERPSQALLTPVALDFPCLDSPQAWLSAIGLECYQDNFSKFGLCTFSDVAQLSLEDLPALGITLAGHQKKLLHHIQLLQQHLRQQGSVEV

[6] = molecular target: Tyrosine-protein kinase HCK (Homo sapiens, UniProt P08631)
[7] = molecular target: Serine/threonine-protein kinase SIK2 (Homo sapiens, UniProt Q9H0K1)
[8] = molecular target: Ribosomal protein S6 kinase alpha-3 (Homo sapiens, UniProt P51812)
Sequence of Ribosomal protein S6 kinase alpha-3 (P51812 whole entry): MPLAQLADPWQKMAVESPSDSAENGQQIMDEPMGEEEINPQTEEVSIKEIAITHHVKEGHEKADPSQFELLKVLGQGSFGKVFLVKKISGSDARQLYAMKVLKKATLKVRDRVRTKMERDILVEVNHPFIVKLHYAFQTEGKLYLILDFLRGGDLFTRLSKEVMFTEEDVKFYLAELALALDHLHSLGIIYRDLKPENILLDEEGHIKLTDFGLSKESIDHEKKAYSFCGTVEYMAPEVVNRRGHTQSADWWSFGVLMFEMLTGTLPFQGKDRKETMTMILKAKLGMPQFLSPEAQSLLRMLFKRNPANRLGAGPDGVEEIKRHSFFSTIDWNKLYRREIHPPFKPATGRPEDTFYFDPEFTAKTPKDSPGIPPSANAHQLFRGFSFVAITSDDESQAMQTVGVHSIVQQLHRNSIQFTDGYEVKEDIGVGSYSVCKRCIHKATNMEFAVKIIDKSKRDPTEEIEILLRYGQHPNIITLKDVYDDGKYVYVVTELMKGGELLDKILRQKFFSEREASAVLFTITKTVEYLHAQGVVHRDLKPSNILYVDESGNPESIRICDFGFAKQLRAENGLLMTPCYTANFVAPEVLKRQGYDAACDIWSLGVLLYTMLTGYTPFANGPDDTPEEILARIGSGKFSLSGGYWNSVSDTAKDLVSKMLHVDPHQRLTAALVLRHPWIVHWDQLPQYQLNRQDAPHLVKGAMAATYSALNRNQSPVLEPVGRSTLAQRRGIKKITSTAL

Sequence of Tyrosine-protein kinase HCK (P08631 whole entry): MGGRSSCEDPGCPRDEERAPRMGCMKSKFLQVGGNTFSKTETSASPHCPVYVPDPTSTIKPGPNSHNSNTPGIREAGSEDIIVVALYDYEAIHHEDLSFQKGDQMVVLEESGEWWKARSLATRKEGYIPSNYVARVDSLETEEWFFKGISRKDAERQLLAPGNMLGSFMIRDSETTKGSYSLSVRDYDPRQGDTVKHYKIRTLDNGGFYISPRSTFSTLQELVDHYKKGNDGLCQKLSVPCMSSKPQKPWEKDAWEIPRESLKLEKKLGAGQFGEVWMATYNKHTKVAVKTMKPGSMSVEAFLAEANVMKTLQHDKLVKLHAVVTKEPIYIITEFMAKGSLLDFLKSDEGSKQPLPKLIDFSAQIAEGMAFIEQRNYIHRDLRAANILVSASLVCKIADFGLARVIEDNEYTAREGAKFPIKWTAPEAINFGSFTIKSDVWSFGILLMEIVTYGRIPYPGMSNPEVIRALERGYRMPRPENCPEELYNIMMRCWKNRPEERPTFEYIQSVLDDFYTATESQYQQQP
Sequence of Non-receptor tyrosine-protein kinase TYK2 (P29597 whole entry): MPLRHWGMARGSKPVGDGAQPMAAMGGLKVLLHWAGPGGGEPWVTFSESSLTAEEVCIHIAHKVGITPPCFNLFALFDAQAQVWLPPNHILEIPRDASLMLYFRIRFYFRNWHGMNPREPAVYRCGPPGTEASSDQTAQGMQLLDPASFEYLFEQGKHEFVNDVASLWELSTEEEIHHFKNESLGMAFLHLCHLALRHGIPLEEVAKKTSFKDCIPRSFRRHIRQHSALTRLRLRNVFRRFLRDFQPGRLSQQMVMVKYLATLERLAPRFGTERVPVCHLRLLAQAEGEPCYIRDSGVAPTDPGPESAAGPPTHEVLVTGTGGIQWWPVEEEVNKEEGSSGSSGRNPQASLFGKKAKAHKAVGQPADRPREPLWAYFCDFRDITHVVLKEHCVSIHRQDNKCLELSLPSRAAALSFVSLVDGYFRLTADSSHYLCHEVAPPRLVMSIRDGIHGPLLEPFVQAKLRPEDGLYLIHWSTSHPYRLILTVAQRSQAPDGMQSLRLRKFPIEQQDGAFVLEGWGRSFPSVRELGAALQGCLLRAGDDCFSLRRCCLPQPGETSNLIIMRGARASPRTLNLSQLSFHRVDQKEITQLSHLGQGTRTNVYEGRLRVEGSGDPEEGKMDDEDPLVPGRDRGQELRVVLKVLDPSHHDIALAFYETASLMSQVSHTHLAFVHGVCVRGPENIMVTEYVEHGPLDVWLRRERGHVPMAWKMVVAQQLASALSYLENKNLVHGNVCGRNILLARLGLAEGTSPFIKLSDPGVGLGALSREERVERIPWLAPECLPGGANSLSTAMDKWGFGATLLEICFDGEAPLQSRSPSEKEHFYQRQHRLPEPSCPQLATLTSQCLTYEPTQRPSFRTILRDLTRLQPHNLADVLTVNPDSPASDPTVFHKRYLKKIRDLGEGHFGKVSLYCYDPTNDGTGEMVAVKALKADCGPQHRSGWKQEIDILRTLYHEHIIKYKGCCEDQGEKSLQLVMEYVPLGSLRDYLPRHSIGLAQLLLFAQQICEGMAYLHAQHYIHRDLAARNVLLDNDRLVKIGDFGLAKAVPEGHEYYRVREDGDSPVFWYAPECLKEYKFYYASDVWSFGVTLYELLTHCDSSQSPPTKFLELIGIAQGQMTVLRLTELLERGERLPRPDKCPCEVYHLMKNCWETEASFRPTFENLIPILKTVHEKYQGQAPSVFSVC
Sequence of Serine/threonine-protein kinase SIK2 (Q9H0K1 whole entry): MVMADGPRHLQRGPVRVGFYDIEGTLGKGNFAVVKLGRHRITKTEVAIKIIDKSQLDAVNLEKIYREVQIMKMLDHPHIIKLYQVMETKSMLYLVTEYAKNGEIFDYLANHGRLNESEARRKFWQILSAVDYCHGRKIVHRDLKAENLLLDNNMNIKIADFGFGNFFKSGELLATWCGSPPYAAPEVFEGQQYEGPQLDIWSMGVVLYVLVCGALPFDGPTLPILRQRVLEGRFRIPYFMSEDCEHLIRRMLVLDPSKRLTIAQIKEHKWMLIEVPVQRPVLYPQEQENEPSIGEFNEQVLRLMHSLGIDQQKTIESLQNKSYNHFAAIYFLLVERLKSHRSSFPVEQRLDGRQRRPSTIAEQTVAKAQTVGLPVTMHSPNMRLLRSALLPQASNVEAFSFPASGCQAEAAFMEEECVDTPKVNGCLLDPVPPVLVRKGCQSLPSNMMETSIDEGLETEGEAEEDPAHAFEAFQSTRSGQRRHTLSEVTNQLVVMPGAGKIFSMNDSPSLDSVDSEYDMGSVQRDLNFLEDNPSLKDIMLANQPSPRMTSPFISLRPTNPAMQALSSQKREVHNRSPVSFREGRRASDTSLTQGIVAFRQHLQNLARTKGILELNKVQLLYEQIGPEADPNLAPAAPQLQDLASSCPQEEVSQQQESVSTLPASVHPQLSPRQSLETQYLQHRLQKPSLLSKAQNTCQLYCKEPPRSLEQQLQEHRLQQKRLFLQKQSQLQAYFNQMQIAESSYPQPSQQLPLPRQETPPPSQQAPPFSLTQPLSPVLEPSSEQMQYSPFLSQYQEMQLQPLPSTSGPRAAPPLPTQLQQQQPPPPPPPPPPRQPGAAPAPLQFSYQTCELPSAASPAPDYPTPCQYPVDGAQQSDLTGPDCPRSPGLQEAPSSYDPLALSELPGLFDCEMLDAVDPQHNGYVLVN
Sequence of Ribosomal protein S6 kinase alpha-6 (Q9UK32 whole entry): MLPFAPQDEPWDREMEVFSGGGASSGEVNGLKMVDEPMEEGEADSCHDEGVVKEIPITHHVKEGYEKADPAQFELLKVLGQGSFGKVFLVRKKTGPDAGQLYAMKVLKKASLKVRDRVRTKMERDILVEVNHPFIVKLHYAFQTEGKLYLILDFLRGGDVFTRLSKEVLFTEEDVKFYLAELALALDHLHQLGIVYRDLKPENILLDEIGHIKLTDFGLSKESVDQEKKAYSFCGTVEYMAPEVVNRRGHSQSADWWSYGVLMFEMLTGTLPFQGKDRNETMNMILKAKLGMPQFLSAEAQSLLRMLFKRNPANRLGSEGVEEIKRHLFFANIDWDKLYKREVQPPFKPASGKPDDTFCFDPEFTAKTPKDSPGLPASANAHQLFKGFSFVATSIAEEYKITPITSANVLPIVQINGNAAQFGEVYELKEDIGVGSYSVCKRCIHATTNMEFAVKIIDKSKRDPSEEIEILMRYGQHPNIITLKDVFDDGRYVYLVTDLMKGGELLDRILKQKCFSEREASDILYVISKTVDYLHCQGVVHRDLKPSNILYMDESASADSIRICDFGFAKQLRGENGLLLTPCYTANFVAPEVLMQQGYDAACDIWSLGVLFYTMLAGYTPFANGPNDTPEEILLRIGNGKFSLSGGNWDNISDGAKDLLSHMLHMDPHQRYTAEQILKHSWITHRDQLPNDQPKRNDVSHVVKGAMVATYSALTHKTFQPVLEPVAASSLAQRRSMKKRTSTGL

SMILES | Kd [1] | Kd [2] | Kd [3] | Kd [4] | Kd [5] | Kd [6] | Kd [7] | Kd [8]
O=C(NC[C@H](O)CO)c1ccncc1Nc1ccc(I)cc1F [PIMASERTIB] | > 30 µM (inactive) | > 30 µM (inactive) | > 30 µM (inactive) | > 30 µM (inactive) | > 30 µM (inactive) | > 30 µM (inactive) | > 30 µM (inactive) | > 30 µM (inactive)
O=C(NOC[C@H](O)CO)c1ccc(F)c(F)c1Nc1ccc(I)cc1F [MIRDAMETINIB] | > 30 µM (inactive) | > 30 µM (inactive) | > 30 µM (inactive) | > 30 µM (inactive) | > 30 µM (inactive) | > 30 µM (inactive) | > 30 µM (inactive) | > 30 µM (inactive)
Cc1cc(Nc2nc(N[C@@H](C)c3ncc(F)cn3)ncc2Cl)n[nH]1 [AZD-1480] | > 30 µM (inactive) | > 30 µM (inactive) | > 30 µM (inactive) | > 30 µM (inactive) | > 30 µM (inactive) | > 30 µM (inactive) | > 30 µM (inactive) | > 30 µM (inactive)
COc1cc(F)c(F)c(Nc2ccc(I)cc2F)c1NS(=O)(=O)C1(C[C@H](O)CO)CC1 [REFAMETINIB] | > 30 µM (inactive) | > 30 µM (inactive) | – | > 30 µM (inactive) | > 30 µM (inactive) | > 30 µM (inactive) | > 30 µM (inactive) | > 30 µM (inactive)
CC1(COc2ccc3c(c2)ncn3-c2ccc3cccc(N4CCC(N)CC4)c3n2)COC1 [CRENOLANIB] | 1.98 µM (active) | > 30 µM (inactive) | > 30 µM (inactive) | 0.012 µM | > 30 µM (inactive) | > 30 µM (inactive) | – | > 30 µM (inactive)
CC(C)CC(=O)Nc1[nH]nc2c1CN(C(=O)C1CCN(C)CC1)C2(C)C [PHA-793887] | > 30 µM (inactive) | > 30 µM (inactive) | > 30 µM (inactive) | > 30 µM (inactive) | > 30 µM (inactive) | > 30 µM (inactive) | > 30 µM (inactive) | > 30 µM (inactive)
Cc1c(NC(=O)OC[C@@H]2COCCN2)cn2ncnc(Nc3ccc4c(cnn4Cc4cccc(F)c4)c3)c12 [AC-480] | > 30 µM (inactive) | > 30 µM (inactive) | > 30 µM (inactive) | > 30 µM (inactive) | > 30 µM (inactive) | > 30 µM (inactive) | > 30 µM (inactive) | > 30 µM (inactive)
C=CCn1c(=O)c2cnc(Nc3ccc(N4CCN(C)CC4)cc3)nc2n1-c1cccc(C(C)(C)O)n1 [ADAVOSERTIB] | > 30 µM (inactive) | > 30 µM (inactive) | > 30 µM (inactive) | > 30 µM (inactive) | 0.337 µM (active) | > 30 µM (inactive) | > 30 µM (inactive) | –
COCCN1CCN(Cc2ccc(-c3n[nH]c4c3C(=O)c3c(NC(=O)NN5CCOCC5)cccc3-4)cc2)CC1 [RGB-286638] | > 30 µM (inactive) | > 30 µM (inactive) | > 30 µM (inactive) | > 30 µM (inactive) | > 30 µM (inactive) | > 30 µM (inactive) | 0.207 µM (active) | > 30 µM (inactive)

Next, values leading:

Kd [1] | Kd [2] | Kd [3] | Kd [4] | Kd [5] | Kd [6] | Kd [7] | Kd [8] | SMILES
> 30 µM (inactive) | > 30 µM (inactive) | > 30 µM (inactive) | > 30 µM (inactive) | > 30 µM (inactive) | – | – | – | CCN(CCCOc1ccc2c(Nc3cc(CC(=O)Nc4cccc(F)c4)n[nH]3)ncnc2c1)CCOP(=O)(O)O [BARASERTIB]
> 30 µM (inactive) | > 30 µM (inactive) | > 30 µM (inactive) | > 30 µM (inactive) | > 30 µM (inactive) | > 30 µM (inactive) | > 30 µM (inactive) | > 30 µM (inactive) | COc1cc(Nc2ncc(F)c(Nc3ccc4c(n3)N(COP(=O)(O)O)C(=O)C(C)(C)O4)n2)cc(OC)c1OC [FOSTAMATINIB]
> 30 µM (inactive) | > 30 µM (inactive) | > 30 µM (inactive) | > 30 µM (inactive) | > 30 µM (inactive) | > 30 µM (inactive) | > 30 µM (inactive) | > 30 µM (inactive) | CNC(=O)c1cc(COc2nnc(Nc3ccc(Cl)cc3)c3ccoc23)ccn1 [TELATINIB]
> 30 µM (inactive) | > 30 µM (inactive) | > 30 µM (inactive) | > 30 µM (inactive) | > 30 µM (inactive) | > 30 µM (inactive) | > 30 µM (inactive) | > 30 µM (inactive) | COc1ccc(-c2ccc3ncc4c(c3c2)n(-c2ccc(N3CCNCC3)c(C(F)(F)F)c2)c(=O)n4C)cn1 [BGT-226 FREE BASE]
> 30 µM (inactive) | > 30 µM (inactive) | > 30 µM (inactive) | > 30 µM (inactive) | > 30 µM (inactive) | > 30 µM (inactive) | > 30 µM (inactive) | > 30 µM (inactive) | S=C(NCc1ccc2c(c1)OCO2)N1CCN(c2ncnc3c2oc2ccccc23)CC1 [AMUVATINIB]
> 30 µM (inactive) | > 30 µM (inactive) | > 30 µM (inactive) | > 30 µM (inactive) | > 30 µM (inactive) | > 30 µM (inactive) | > 30 µM (inactive) | > 30 µM (inactive) | C=CC(=O)Nc1cccc(Nc2nc(Nc3ccc(N4CCN(C(C)=O)CC4)cc3OC)ncc2C(F)(F)F)c1 [ROCILETINIB]
> 30 µM (inactive) | > 30 µM (inactive) | > 30 µM (inactive) | > 30 µM (inactive) | > 30 µM (inactive) | > 30 µM (inactive) | > 30 µM (inactive) | > 30 µM (inactive) | O=S(=O)(c1cccc2c(O)nccc12)N1CCCNCC1 [HYDROXYFASUDIL]
3.42 µM (active) | 2.38 µM (active) | > 30 µM (inactive) | > 30 µM (inactive) | > 30 µM (inactive) | > 30 µM (inactive) | > 30 µM (inactive) | > 30 µM (inactive) | O=C(O)c1ccc2c(c1)nc(Nc1cccc(Cl)c1)c1ccncc12 [SILMITASERTIB]
> 30 µM (inactive) | > 30 µM (inactive) | > 30 µM (inactive) | > 30 µM (inactive) | > 30 µM (inactive) | > 30 µM (inactive) | > 30 µM (inactive) | > 30 µM (inactive) | CCc1cc2c(cc1N1CCC(N3CCOCC3)CC1)C(C)(C)c1[nH]c3cc(C#N)ccc3c1C2=O [ALECTINIB]
> 30 µM (inactive) | > 30 µM (inactive) | – | > 30 µM (inactive) | > 30 µM (inactive) | > 30 µM (inactive) | > 30 µM (inactive) | > 30 µM (inactive) | COc1cc2ncnc3c2cc1OCCCCCN(C)Cc1ccc(Br)cc1N3 [JNJ-26483327]
> 30 µM (inactive) | > 30 µM (inactive) | > 30 µM (inactive) | > 30 µM (inactive) | – | > 30 µM (inactive) | > 30 µM (inactive) | > 30 µM (inactive) | Cn1c(=O)c(F)c(Nc2ccc(I)cc2F)c2c(=O)n(C[C@@H](O)CO)cnc21 [TAK-733]
> 30 µM (inactive) | > 30 µM (inactive) | > 30 µM (inactive) | > 30 µM (inactive) | > 30 µM (inactive) | > 30 µM (inactive) | > 30 µM (inactive) | – | Cn1c(=O)n(-c2ccc(C(C)(C)C#N)cc2)c2c3cc(-c4cnc5ccccc5c4)ccc3ncc21 [DACTOLISIB]
